Assay results from ChEMBL document CHEMBL5608163, “Structure modification of anoplin for fighting resistant bacteria” (Eur J Med Chem, 2024).
≈ marks a conversion by molar mass, not a printed value. Square brackets hold non-standard residues; d marks the D form. Peptide text beside a SMILES is read from it. * marks the point of attachment. Pentadecanoyl = CCCCCCCCCCCCCCC(=O)*; NMeI = CC[C@H](C)[C@H](NC)C(=O)O; Tridecanoyl = CCCCCCCCCCCCC(=O)*; NMeL = CN[C@@H](CC(C)C)C(=O)O; Undecanoyl = CCCCCCCCCCC(=O)*; Nonanoyl = CCCCCCCCC(=O)*

What was measured:
Staphylococcus aureus [1] = assay: Antibacterial activity against Staphylococcus aureus ATCC 25923 assessed as reduction in bacterial growth incubated for 18 to 24 hrs by broth microdilution method; format: functional; conditions: time 18-24 hrs
Escherichia coli [2] = assay: Antibacterial activity against Escherichia coli ATCC 25922 assessed as reduction in bacterial growth by broth microdilution method; format: functional
Pseudomonas aeruginosa = assay: Antibacterial activity against Pseudomonas aeruginosa ATCC 27853 assessed as reduction in bacterial cell growth measured for 18 hrs by Mueller-Hinton broth based two-fold serial dilution method; format: functional
Staphylococcus aureus [3] = assay: Antibacterial activity against Staphylococcus aureus ATCC 25923 assessed as reduction in bacterial cell growth measured for 18 hrs by Mueller-Hinton broth based two-fold serial dilution method; format: functional
Klebsiella pneumoniae = assay: Antibacterial activity against Klebsiella pneumoniae ATCC 700603 assessed as reduction in bacterial cell growth measured for 18 hrs by Mueller-Hinton broth based two-fold serial dilution method; format: functional
[4] = Hemolytic activity in mouse Red blood cells incubated for 1 hr by microplate reader assay; format: toxicity, cell-based, Erythrocyte; conditions: red blood cells
Bacillus subtilis = assay: Antibacterial activity against Bacillus subtilis ATCC 23857 assessed as reduction in bacterial cell growth measured for 18 hrs by Mueller-Hinton broth based two-fold serial dilution method; format: functional
Escherichia coli [5] = assay: Antibacterial activity against Escherichia coli ATCC 25922 assessed as reduction in bacterial cell growth measured for 18 hrs by Mueller-Hinton broth based two-fold serial dilution method; format: functional

| SMILES | MIC (Staphylococcus aureus [1]) | MIC (Escherichia coli [2]) | MIC (Pseudomonas aeruginosa) | MIC (Staphylococcus aureus [3]) | MIC (Klebsiella pneumoniae) | MIC (Bacillus subtilis) | MIC (Escherichia coli [5]) | HC50 at 1 h [4] |
| --- | --- | --- | --- | --- | --- | --- | --- | --- |
| CC[C@H](C)[C@H](NC(=O)[C@H](CCCNC(=N)N)NC(=O)[C@H](C)NC(=O)[C@H](CC(C)C)NC(=O)[C@H](CC(C)C)NC(=O)CN)C(=O)N[C@@H](CCCCN)C(=O)N[C@H](C(=O)N[C@@H](CC(C)C)C(=O)N[C@@H](CC(C)C)C(N)=O)[C@@H](C)O (H-GLLARIKTLL-NH2) | 25.6 µM (≈ 28.1 µg/mL) | 14.6 µM (≈ 16 µg/mL) |  |  |  |  |  |  |
| CC(C)C[C@H](NC(=O)[C@H](CC(C)C)NC(=O)[C@@H](NC(=O)[C@H](CCCCN)NC(=O)[C@H](C)NC(=O)[C@H](CCCNC(=N)N)NC(=O)[C@H](CCCCN)NC(=O)[C@H](CC(C)C)NC(=O)[C@H](CC(C)C)NC(=O)CN)[C@@H](C)O)C(N)=O (H-GLLKRAKTLL-NH2) | > 36.9 µM | > 36.9 µM |  |  |  |  |  |  |
| CCCCCCCCC(=O)NCC(=O)N[C@@H](CC(C)C)C(=O)N(C)[C@@H](CC(C)C)C(=O)N[C@@H](CCCCN)C(=O)N[C@@H](CCCNC(=N)N)C(=O)N(C)[C@H](C(=O)N[C@@H](CCCCN)C(=O)N[C@H](C(=O)N[C@@H](CC(C)C)C(=O)N[C@@H](CC(C)C)C(N)=O)[C@@H](C)O)[C@@H](C)CC (Nonanoyl-GL[NMeL]KR[NMeI]KTLL-NH2) |  |  | 32 µM (≈ 42.3 µg/mL) | 128 µM (≈ 169 µg/mL) | > 128 µM | 8 µM (≈ 10.6 µg/mL) | 128 µM (≈ 169 µg/mL) | > 256 µM |
| CCCCCCCCCCCCCCC(=O)NCC(=O)N[C@@H](CC(C)C)C(=O)N(C)[C@@H](CC(C)C)C(=O)N[C@@H](CCCCN)C(=O)N[C@@H](CCCNC(=N)N)C(=O)N(C)[C@H](C(=O)N[C@@H](CCCCN)C(=O)N[C@H](C(=O)N[C@@H](CC(C)C)C(=O)N[C@@H](CC(C)C)C(N)=O)[C@@H](C)O)[C@@H](C)CC (Pentadecanoyl-GL[NMeL]KR[NMeI]KTLL-NH2) |  |  | 16 µM (≈ 22.5 µg/mL) | 8 µM (≈ 11.2 µg/mL) | 16 µM (≈ 22.5 µg/mL) | 4 µM (≈ 5.62 µg/mL) | 16 µM (≈ 22.5 µg/mL) | 64 µM |
| CCCCCCCCCCCCC(=O)NCC(=O)N[C@@H](CC(C)C)C(=O)N(C)[C@@H](CC(C)C)C(=O)N[C@@H](CCCCN)C(=O)N[C@@H](CCCNC(=N)N)C(=O)N(C)[C@H](C(=O)N[C@@H](CCCCN)C(=O)N[C@H](C(=O)N[C@@H](CC(C)C)C(=O)N[C@@H](CC(C)C)C(N)=O)[C@@H](C)O)[C@@H](C)CC (Tridecanoyl-GL[NMeL]KR[NMeI]KTLL-NH2) |  |  | 8 µM (≈ 11 µg/mL) | 4 µM (≈ 5.51 µg/mL) | 32 µM (≈ 44.1 µg/mL) | 4 µM (≈ 5.51 µg/mL) | 8 µM (≈ 11 µg/mL) | 64 µM |

Further lines, with some results ahead:

| MIC (Staphylococcus aureus [1]) | MIC (Escherichia coli [2]) | MIC (Pseudomonas aeruginosa) | MIC (Staphylococcus aureus [3]) | MIC (Klebsiella pneumoniae) | MIC (Bacillus subtilis) | MIC (Escherichia coli [5]) | SMILES | HC50 at 1 h [4] |
| --- | --- | --- | --- | --- | --- | --- | --- | --- |
| > 18 µM | > 18 µM |  |  |  |  |  | CC[C@H](C)[C@H](NC(=O)[C@H](CCCNC(=N)N)NC(=O)[C@H](CCCCN)NC(=O)[C@H](CC(C)C)NC(=O)[C@H](CC(C)C)NC(=O)[C@H](C)N)C(=O)N[C@@H](CCCCN)C(=O)N[C@H](C(=O)N[C@@H](CC(C)C)C(=O)N[C@@H](CC(C)C)C(N)=O)[C@@H](C)O (H-ALLKRIKTLL-NH2) |  |
| > 38.7 µM | > 38.7 µM |  |  |  |  |  | CC[C@H](C)[C@H](NC(=O)[C@H](CCCNC(=N)N)NC(=O)[C@H](CCCCN)NC(=O)[C@H](CC(C)C)NC(=O)[C@H](C)NC(=O)CN)C(=O)N[C@@H](CCCCN)C(=O)N[C@H](C(=O)N[C@@H](CC(C)C)C(=O)N[C@@H](CC(C)C)C(N)=O)[C@@H](C)O (H-GALKRIKTLL-NH2) |  |
| > 34.2 µM | > 34.2 µM |  |  |  |  |  | CC[C@H](C)[C@H](NC(=O)[C@H](CCCNC(=N)N)NC(=O)[C@H](CCCCN)NC(=O)[C@H](C)NC(=O)[C@H](CC(C)C)NC(=O)CN)C(=O)N[C@@H](CCCCN)C(=O)N[C@H](C(=O)N[C@@H](CC(C)C)C(=O)N[C@@H](CC(C)C)C(N)=O)[C@@H](C)O (H-GLAKRIKTLL-NH2) |  |
|  |  | 8 µM (≈ 10.8 µg/mL) | 16 µM (≈ 21.6 µg/mL) | 64 µM (≈ 86.4 µg/mL) | 4 µM (≈ 5.4 µg/mL) | 16 µM (≈ 21.6 µg/mL) | CCCCCCCCCCC(=O)NCC(=O)N[C@@H](CC(C)C)C(=O)N(C)[C@@H](CC(C)C)C(=O)N[C@@H](CCCCN)C(=O)N[C@@H](CCCNC(=N)N)C(=O)N(C)[C@H](C(=O)N[C@@H](CCCCN)C(=O)N[C@H](C(=O)N[C@@H](CC(C)C)C(=O)N[C@@H](CC(C)C)C(N)=O)[C@@H](C)O)[C@@H](C)CC (Undecanoyl-GL[NMeL]KR[NMeI]KTLL-NH2) | > 256 µM |
